Read-outs that look alike come from different tables or passages of the source.
Key:
opioid δ receptor = target: T1, opioid δ receptor (Rattus norvegicus, UniProt P33533); assay: Opioid δ receptor binding, [3H]DADLE displacement in rat brain membranes
T1 construct: Rat membranes are prepared each day using a partially thawed frozen rat brain; from tissue; host or cells: rat brain membranes

[1] = target: T2, δ receptor (mouse vas deferens) (Mus musculus, UniProt P32300); assay: Mouse vas deferens (MVD) smooth muscle bioassay; settings: for IC50: inhibition of electrically stimulated contractions, read-out: agonist activity MVD (δ) IC50
Procedure: (§1) Bioassays in Smooth Muscle Preparations. The functional activity profiles of selected ligands are also determined in the mouse vas deferens (MVD) and guinea pig ileum (GPI) smooth muscle preparations as described previously.
(§2) The agonist activity is determined by the ability of the compound to inhibit electrically stimulated contractions of the GPI and MVD. The GPI is primarily a μ receptor preparation, even though the ileum does also contain κ receptors. In the MVD, the opioid effects are predominantly mediated through δ receptors, but μ and κ receptors also exist in this tissue.
(§3) Tissues came from male ICR mice weighing 25-40 g and male Hartley guinea pigs weighing 250-500 g. The tissues are tied to gold chain with suture silk, suspended in 20 mL baths containing 37° C. oxygenated (95% O2, 5% CO2) Krebs bicarbonate solution (magnesium free for the MVD), and allowed to equilibrate for 15 min. The tissues are then stretched to optimal length previously determined to be 1 g tension (0.5 g for MVD) and allowed to equilibrate for 15 min. The tissues are stimulated transmurally between platinum wire electrodes at 0.1 Hz, 0.4 ms pulses (2-ms pulses for MVD), and supramaximal voltage. […] Tissues not producing typical results are not used. Experimental compounds were added to the baths in 14-60 μL volumes. Succeeding doses of agonist are added cumulatively to the bath at 3 min intervals to produce a concentration-response curve. The tissues are then washed extensively with fresh buffer until the original contraction height is reestablished. […] The tissues are then washed with fresh buffer for 30 min, and the agonist dose-response curve was repeated. Rightward shifts in the dose-response curves are calculated by dividing the antagonized dose-response curve IC50 value by the unantagonized IC50 value. IC50 values represent the mean of two to four tissues. IC50 estimates and their associated standard errors are determined by using a computerized nonlinear least-squares method. (MINSQ Least Squares Parameter Estimation, version 3.05; MicroMath Inc., 1999.)

mice = assay: 55° C. tail-flick antinociception test in mice; settings: for naloxone sensitivity: naloxone 10 mg/kg ip, -10 min, yes = greater than 80% reduction in the antinociceptive effect
Procedure: Analgesic Testing and Assessment of Tolerance Development. The analgesic activity of selected ligands is tested in mice using the 55° C. tail-flick test as previously described. (See Wells et al., supra.) The test compounds are administered by the intracerbroventricular (icv) route. […] To determine whether the analgesic activity of the tested compounds is mediated through opioid receptors, the blockade of antinociceptive activity by pretreatment with naloxone is carried out. The analgesic activity was considered as naloxone sensitive if greater than 80% reduction in the antinociceptive response is observed.
Antinociceptive Studies. Male ICR mice (Harlan) are used for all evaluations. Mice are housed in a temperature and humidity controlled vivarium on a 12:12 h light:dark cycle with unlimited access to food and water prior to the formal procedures. […] The dihydrochloride salt of 7h is dissolved in water and injected in a volume of 5 μL. All other compounds are dissolved in 100% DMSO and injected in a volume of 5 μL. Antinociceptive assays are performed at various times after injection.
Percent antinociception is calculated using the formula: % MPE (maximal possible effect)=100×(test−control)/(cutoff−control) where control is the predrug observation, test is the postdrug observation, and cutoff is the maximal length of stimulus allowed (10 s for 55° C. tail-flick). Antinociceptive A50 values and 95% confidence intervals are determined using linear regression software (FlashCalc). Opioid activity of the test compounds are assessed by pretreating animals with naloxone (10 mg/kg ip, −10 min) followed by an icv injection of an approximate A90 dose of test compound. […] Antinociception is assessed in the 55° C. tail-flick test at 10, 20 and 30 min. A positive response to a fixed dose of naloxone is indicated when greater than 80% reduction in the antinociceptive effect of the agonist is observed.

opioid μ receptor [2] = target: T3, opioid μ receptor (Rattus norvegicus, UniProt P33535); settings: for selectivity ratio μ/δ: ratio of binding Ki values; for Ki: read-out: Ki (nM) ± SEM μ, displacement of [3H]DAMGO (1.4-3.0 nM), rat brain membranes
opioid κ receptor [3] = target: T4, opioid κ receptor (Cavia porcellus, UniProt P41144); settings: for selectivity ratio κ/δ: ratio of binding Ki values; for Ki: read-out: Ki (nM) ± SEM κ, displacement of [3H]U69,593 (1.2-[…]), guinea pig brain membranes
μ receptor [4] = target: T5, μ receptor (Cavia porcellus, UniProt A0ACM8Q262); settings: for Ki: read-out: antagonist activity apparent Ki (nM ± SD) μ, inhibition of DAMGO (10 μM) stimulated [35S]GTP-γ-S binding
δ receptor [5] = target: T6, δ receptor (Cavia porcellus, UniProt A0A286XTF2); assay: biochemical
μ receptor [6] = target: T5, μ receptor; assay: biochemical; settings: read-out: agonist activity Emax % μ
δ receptor [7] = target: T6, δ receptor; settings: for maximum percentage inhibition of SNC-80 stimulated [35S]GTP-γ-S binding: δ receptors, partial inhibition with increasing concentrations
κ receptor = κ receptor (Cavia porcellus, UniProt P41144); settings: read-out: antagonist activity apparent Ki (nM ± SD) κ
[8] = target: T2, δ receptor (mouse vas deferens); assay: Mouse vas deferens (MVD) smooth muscle bioassay; parameters: from tissue; host or cells: mouse vas deferens (male ICR mice)
Procedure: as §1, §2, §3

opioid μ receptor [9] = target: T3, opioid μ receptor; assay: biochemical
opioid κ receptor [10] = target: T4, opioid κ receptor; assay: biochemical
[11] = displacement of [3H]DADLE (1.3-2.0 nM), rat brain membranes, 100 nM DAMGO to block μ sites, read-out: Ki (nM) ± SEM δ

T1 sequence (P33533 whole entry): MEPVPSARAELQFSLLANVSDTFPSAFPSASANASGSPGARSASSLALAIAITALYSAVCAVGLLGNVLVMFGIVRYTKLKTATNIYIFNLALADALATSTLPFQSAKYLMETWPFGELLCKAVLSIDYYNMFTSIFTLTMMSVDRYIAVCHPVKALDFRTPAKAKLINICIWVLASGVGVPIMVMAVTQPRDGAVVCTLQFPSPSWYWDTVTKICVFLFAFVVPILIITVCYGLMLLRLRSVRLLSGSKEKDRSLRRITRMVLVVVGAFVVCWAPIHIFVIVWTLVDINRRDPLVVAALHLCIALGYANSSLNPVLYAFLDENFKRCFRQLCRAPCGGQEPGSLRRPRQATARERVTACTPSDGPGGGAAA
T6 sequence (A0A286XTF2 1-366): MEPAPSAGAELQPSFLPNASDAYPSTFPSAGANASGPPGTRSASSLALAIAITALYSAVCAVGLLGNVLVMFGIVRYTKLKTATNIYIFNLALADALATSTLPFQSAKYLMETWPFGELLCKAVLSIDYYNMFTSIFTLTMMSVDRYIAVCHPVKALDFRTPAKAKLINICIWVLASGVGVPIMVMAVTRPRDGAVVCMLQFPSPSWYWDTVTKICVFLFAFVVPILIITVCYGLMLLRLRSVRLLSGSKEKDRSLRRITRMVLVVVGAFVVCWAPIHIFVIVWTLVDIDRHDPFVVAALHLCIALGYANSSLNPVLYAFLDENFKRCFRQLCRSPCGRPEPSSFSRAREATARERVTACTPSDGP
T3 sequence (P33535 whole entry): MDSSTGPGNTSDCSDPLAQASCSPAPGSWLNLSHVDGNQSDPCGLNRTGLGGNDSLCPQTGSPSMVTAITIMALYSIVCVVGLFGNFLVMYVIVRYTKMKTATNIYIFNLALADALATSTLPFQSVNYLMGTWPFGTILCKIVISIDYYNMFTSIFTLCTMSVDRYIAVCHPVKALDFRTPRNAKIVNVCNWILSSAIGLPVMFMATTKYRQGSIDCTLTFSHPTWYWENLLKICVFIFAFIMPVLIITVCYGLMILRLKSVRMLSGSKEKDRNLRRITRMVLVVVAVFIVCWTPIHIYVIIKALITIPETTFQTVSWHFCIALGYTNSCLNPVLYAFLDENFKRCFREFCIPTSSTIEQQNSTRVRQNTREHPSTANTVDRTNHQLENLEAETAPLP
κ receptor, sequence (P41144 whole entry): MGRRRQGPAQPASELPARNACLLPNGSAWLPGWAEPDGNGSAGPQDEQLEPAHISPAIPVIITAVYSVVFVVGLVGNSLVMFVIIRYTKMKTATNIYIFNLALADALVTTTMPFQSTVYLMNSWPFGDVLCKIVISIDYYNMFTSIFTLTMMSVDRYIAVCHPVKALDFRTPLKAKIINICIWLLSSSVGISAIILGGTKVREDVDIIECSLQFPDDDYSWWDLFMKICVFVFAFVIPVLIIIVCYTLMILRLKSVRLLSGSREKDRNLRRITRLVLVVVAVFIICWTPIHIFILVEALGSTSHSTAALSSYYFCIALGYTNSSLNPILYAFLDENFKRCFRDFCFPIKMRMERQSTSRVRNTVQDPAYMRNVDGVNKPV
T4 sequence (P41144 whole entry): as above
T5 sequence (A0ACM8Q262 1-400): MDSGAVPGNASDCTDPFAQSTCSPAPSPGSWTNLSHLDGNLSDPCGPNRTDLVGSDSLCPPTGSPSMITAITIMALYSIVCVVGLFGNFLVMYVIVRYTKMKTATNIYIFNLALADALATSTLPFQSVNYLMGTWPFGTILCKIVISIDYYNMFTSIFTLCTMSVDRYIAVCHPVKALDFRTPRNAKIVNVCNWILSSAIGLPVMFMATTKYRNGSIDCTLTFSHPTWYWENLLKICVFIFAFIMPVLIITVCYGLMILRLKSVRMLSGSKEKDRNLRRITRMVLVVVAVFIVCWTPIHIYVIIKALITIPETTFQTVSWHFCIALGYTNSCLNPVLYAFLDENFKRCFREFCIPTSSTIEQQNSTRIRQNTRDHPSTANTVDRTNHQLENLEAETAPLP
T2 sequence (P32300 whole entry): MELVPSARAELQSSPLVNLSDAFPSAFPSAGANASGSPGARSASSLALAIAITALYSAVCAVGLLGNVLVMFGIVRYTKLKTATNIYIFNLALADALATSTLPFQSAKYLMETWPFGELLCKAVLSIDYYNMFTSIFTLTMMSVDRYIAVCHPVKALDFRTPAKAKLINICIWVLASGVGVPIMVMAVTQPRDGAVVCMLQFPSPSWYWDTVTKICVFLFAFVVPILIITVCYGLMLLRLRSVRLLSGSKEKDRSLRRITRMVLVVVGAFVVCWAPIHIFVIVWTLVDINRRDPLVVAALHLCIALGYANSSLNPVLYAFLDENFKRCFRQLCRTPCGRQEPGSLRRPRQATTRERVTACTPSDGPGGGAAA

SMILES | Ki (opioid δ receptor; [11]) [nM] | IC50 [1] [nM] | % nociception @ 100 nmol (mice; icv, mouse tail-flick) | factor that prevented determining the A50 value (mice; icv, mouse tail-flick) | naloxone sensitivity (mice) | melting point [°C] | selectivity ratio μ/δ (opioid μ receptor [2]) | Ki (opioid μ receptor [2]) [nM] | selectivity ratio κ/δ (opioid κ receptor [3]) | Ki (opioid κ receptor [3]) [nM] | Ki (μ receptor [4]) [nM] | Ki (δ receptor [5]) [nM] | Emax (μ receptor [6]) [%] | Ki (κ receptor) [nM] | Kb [8] [nM] | Ki (opioid δ receptor) [nM] | Ki (opioid μ receptor [9]) [nM] | Ki (opioid κ receptor [10]) [nM] | further results
CN1CC[C@]23c4c5ccc(O)c4O[C@H]2c2ncccc2C[C@H]3[C@H]1C5 [7f, 6,7-Didehydro-4,5α-epoxy-3-hydroxy-17-methylpyrido[2′,3′:6,7]morphinan] | 8 ± 0.8 | 152 ± 25.5 | 75% @100 nmol | insensitivity to naloxone | no | 164 to 166 | 2.0 | 13 ± 0.5 | 8 | 66 ± 2 | > 1000 | 595 ± 48 | 44 ± 1 | – | – | – | – | – | blockade of agonist activity in the MVD by antagonists ([1]; naloxone and ICI-174,864): blocked by the nonselective antagonist naloxone but not by the δ selective antagonist ICI-174,864; EC50 (μ receptor [4]; read-out: agonist activity EC50 (nM ± SD) μ, δ and κ sites blocked with TIPP (1 μM) and nor-BNI (6 nM)): 502 ± 76 nM
CN1CC[C@]23c4c5ccc(O)c4O[C@H]2c2ncc(-c4ccc(Cl)cc4Cl)cc2C[C@H]3[C@H]1C5 [7k, 5′-(2,4-Dichlorophenyl)-6,7-didehydro-4,5α-epoxy-3-hydroxy-17-methylpyrido[2′,3′:6,7]morphinan] | 1.1 | – | – | lack of efficacy | – | 198 to 200 | 88 | 97 ± 4 | 366 | 403 ± 9 | > 1000 | 1.08 ± 0.11 | 51 ± 5 | 308 ± 21 | 5.02 ± 1.56 | – | – | – | enhancement in binding affinity at the δ receptor relative to 7h (opioid δ receptor): 4 fold; % nociception @ 60 nmol (mice; icv, 60 nmol, mouse tail-flick): 40% @ 60 nmol^e; improvement in antagonist potency at the δ receptor relative to 7h (δ receptor [7]): 10 fold; antagonist activity MVD (δ) Ke ([8]; DPDPE as agonist, 1 μM compound, 30 min preincubation): 5 nM
CN1CC[C@]23c4c5ccc(O)c4O[C@H]2c2ncc(-c4ccc(Br)cc4)cc2C[C@H]3[C@H]1C5 [7i, 5′-(4-Bromophenyl)-6,7-didehydro-4,5α-epoxy-3-hydroxy-17-methylpyrido[2′,3′:6,7]morphinan] | 5 ± 0.6 | – | – | – | yes | 186 to 188 | 40 | 200 ± 11 | 18 | 91 ± 6 | > 1000 | – | 59 ± 3 | 265 ± 29 | 20 ± 6.59 | – | – | – | A50 (mice; icv, mouse tail-flick, at time of peak drug effect): 47.2 nmol; maximum percentage inhibition of SNC-80 stimulated [35S]GTP-γ-S binding (δ receptor [7]): 69±3%; IC50 (δ receptor [5]): 55 nM
COc1ccc2c3c1OC1c4ncc(-c5ccc(Br)cc5)cc4CC4(O)C(C2)N(C)CCC314 (stereo not drawn) [7p, 5′-(4-bromophenyl)-6,7-didehydro-4,5α-epoxy-14-hydroxy-3-methoxy-17-methyl-pyrido[2′,3′:6,7]morphinan] | – | – | – | – | – | > 230 | 82 | – | 320 | – | – | – | – | – | – | 23 ± 1.3 | 1890 ± 72 | 7370 ± 522 | –
CN1CC[C@]23c4c5ccc(O)c4O[C@H]2c2ncc(-c4ccccc4)cc2C[C@@]3(O)[C@H]1C5 [7c, 6,7-Didehydro-3,14-dihydroxy-4,5α-epoxy-17-methyl-5′-phenylpyrido[2′,3′:6,7]morphinan] | 2.9 ± 0.12 | 213 ± 55.8 | 64% @ 100 nmol | lack of efficacy | no | 190 to 192 | 9 | 26 ± 0.96 | 124 | 360 ± 17 | > 1000 | – | 27 | – | – | – | – | – | maximum percentage inhibition of SNC-80 stimulated [35S]GTP-γ-S binding (δ receptor [7]): 61±3%; IC50 (δ receptor [5]): 920 nM
CN1CC[C@]23c4c5ccc(O)c4O[C@H]2c2ncc(-c4ccccc4)cc2C[C@H]3[C@H]1C5 [7g, 6,7-Didehydro-4,5α-epoxy-3-hydroxy-17-methyl-5′-phenylpyrido[2′,3′:6,7]morphinan] | 1.9 ± 0.09 | 48.4 ± 8.65 | 48% @ 100 nmol | – | yes | – | 13 | 24 ± 2 | 43 | 81 ± 5 | > 1000 | > 1000 | 60 | – | – | – | – | – | toxicity preventing A50 determination (mice; icv, mice): toxicity
Oc1ccc2c3c1O[C@H]1c4ncc(-c5ccc(Cl)cc5)cc4C[C@H]4[C@@H](C2)N(CC2CC2)CC[C@]314 [7l, 5′-(4-Chlorophenyl)-17-(cyclopropylmethyl)-6,7-didehydro-4,5α-epoxy-3-hydroxypyrido[2′,3′:6,7]morphinan] | 2.6 ± 0.12 | – | – | lack of efficacy | – | 178 to 180 | 24 | 62 ± 3 | 2.3 | 6 ± 0.3 | – | 1.56 ± 0.14 | – | 11.2 ± 0.62 | 6 ± 1.33 | – | – | – | % nociception @ 300 nmol (mice; icv, 300 nmol, mouse tail-flick): 18% @ 300 nmol
COc1ccc2c3c1OC1c4ncc(-c5ccccc5)cc4CC4(O)C(C2)N(C)CCC314 (stereo not drawn) [7n, 6,7-didehydro-4,5α-epoxy-14-hydroxy-3-methoxy-17-methyl-5′-phenylpyrido[2′,3′:6,7]-morphinan] | – | – | – | – | – | > 250 | 26 | – | >294 | – | – | – | – | – | – | 34 ± 0.63 | 894 ± 19 | > 10000 | –
CN1CCC23c4c5ccc(O)c4OC2c2ncc(-c4ccc(Br)cc4)cc2CC3(O)C1C5 (stereo not drawn) [7e, 5′-(4-Bromophenyl)-6,7-didehydro-3,14-dihydroxy-4,5α-epoxy-17-methylpyrido[2′,3′:6,7]morphinan] | – | – | – | – | – | 196 to 198 | 49 | – | 108 | – | – | – | – | – | – | 4 ± 0.3 | 196 ± 4 | 432 ± 18 | –
